According to ChEMBL document CHEMBL1201862, “PubChem BioAssay data set” (2004):
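Growth conditions: 96-well plates. Treatment: test compound, 48 hours, 5 concentrations. Analysis: linear interpolation between bracketing concentrations; unreached endpoints set to highest concentration. Abbreviation: GI50, concentration required for 50% inhibition of growth.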 Calls of active or inactive are those of the source. Cut-off read from the data, not from the text of the source: active = GI50 up to about 1.1 µM and inactive = higher.

Columns and labels:
Assay in all cases: growth of human tumour cells (NCI), 48 h
786-0 = test system: 786-0
A549 = test system: A549
CAKI-1 = test system: CAKI-1
MCF7 = test system: MCF7
MDA-MB-435 = test system: MDA-MB-435
NCI-H226 = test system: NCI-H226
NCI-H23 = test system: NCI-H23
OVCAR-3 = test system: OVCAR-3
OVCAR-4 = test system: OVCAR-4
OVCAR-5 = test system: OVCAR-5
SF-268 = test system: SF-268
SF-295 = test system: SF-295
SF-539 = test system: SF-539
SK-MEL-28 = test system: SK-MEL-28
SK-MEL-2 = test system: SK-MEL-2
SK-MEL-5 = test system: SK-MEL-5
SN12C = test system: SN12C
SNB-19 = test system: SNB-19
SR = test system: SR
TK-10 = test system: TK-10

| SMILES | GI50 (786-0) | GI50 (A549) | GI50 (CAKI-1) | GI50 (MCF7) | GI50 (MDA-MB-435) | GI50 (NCI-H226) | GI50 (NCI-H23) | GI50 (OVCAR-3) | GI50 (OVCAR-4) | GI50 (OVCAR-5) | GI50 (SF-268) | GI50 (SF-295) | GI50 (SF-539) | GI50 (SK-MEL-28) | GI50 (SK-MEL-2) | GI50 (SK-MEL-5) | GI50 (SN12C) | GI50 (SNB-19) | GI50 (SR) | GI50 (TK-10) |
| --- | --- | --- | --- | --- | --- | --- | --- | --- | --- | --- | --- | --- | --- | --- | --- | --- | --- | --- | --- | --- |
| O=C1C2=C(C(=O)c3c(O)ccc(O)c31)[C@@H](O)[C@@H](O)[C@@H](O)C2 | 2.02 µM (inactive) | 3.21 µM (inactive) | 1.37 µM (inactive) | 1.11 µM (active) | 1.57 µM (inactive) | 15.1 µM (inactive) | 1.96 µM (inactive) | 0.504 µM (active) | 1.93 µM (inactive) | 7.96 µM (inactive) | 2.78 µM (inactive) | 7.24 µM (inactive) | 3.71 µM (inactive) | 2.26 µM (inactive) | 1.73 µM (inactive) | 1.74 µM (inactive) | 2.01 µM (inactive) | 13.1 µM (inactive) | > 100 µM (inactive) | 1.52 µM (inactive) |
| Cc1cc2c(cc1C)C(=O)c1ncccc1C2=O | 28.5 µM (inactive) | 22.7 µM (inactive) | 36.6 µM (inactive) | 20.2 µM (inactive) | 16.8 µM (inactive) | 40.1 µM (inactive) | 15.6 µM (inactive) | 3.06 µM (inactive) | 21.9 µM (inactive) | 21.1 µM (inactive) | 49.3 µM (inactive) | 41.8 µM (inactive) | 26.5 µM (inactive) | 50.5 µM (inactive) | 48.5 µM (inactive) | 7 µM (inactive) | 22.6 µM (inactive) | 34.8 µM (inactive) | < 0.01 µM (active) | > 100 µM (inactive) |
| O=C1CNNC(CSc2nc3ccc(I)cc3c(=O)n2Cc2ccccc2)=N1 | 29.9 µM (inactive) | 38.5 µM (inactive) | 15 µM (inactive) | 28.4 µM (inactive) | 32.6 µM (inactive) | 18.1 µM (inactive) | 31.6 µM (inactive) | 18.6 µM (inactive) | 37.4 µM (inactive) | 41.2 µM (inactive) | 24.7 µM (inactive) | 20.4 µM (inactive) | 22.5 µM (inactive) | 20.9 µM (inactive) | 16.4 µM (inactive) | 15.7 µM (inactive) | 17.1 µM (inactive) | 53.5 µM (inactive) | 17.9 µM (inactive) | 30.1 µM (inactive) |
| FC(F)(F)c1cccc(-c2nc3nc(Cl)c(Cl)nc3[nH]2)c1 | 3.77 µM (inactive) | 2 µM (inactive) | 2.73 µM (inactive) | 0.0241 µM (active) | 2.52 µM (inactive) | 1.67 µM (inactive) | 1.47 µM (inactive) | 1.59 µM (inactive) | 2.28 µM (inactive) | 2.48 µM (inactive) | 3.03 µM (inactive) | 2.05 µM (inactive) | 3.15 µM (inactive) | 3.13 µM (inactive) | 1.56 µM (inactive) | 0.544 µM (active) | 2.69 µM (inactive) | 3.27 µM (inactive) | 2.62 µM (inactive) | 4.95 µM (inactive) |
| c1ccc2c(c1)CCc1c-2n(CCN2CCCCC2)c2ccccc12 | 16.3 µM (inactive) | 18.7 µM (inactive) | 16.6 µM (inactive) | 15.2 µM (inactive) | 25.4 µM (inactive) | 10.9 µM (inactive) | 17.7 µM (inactive) | 16.6 µM (inactive) | 18.8 µM (inactive) | 15.5 µM (inactive) | 21.2 µM (inactive) | 16.9 µM (inactive) | 12.9 µM (inactive) | 19.6 µM (inactive) | 16.3 µM (inactive) | 0.564 µM (active) | 17.3 µM (inactive) | 26 µM (inactive) | 8.81 µM (inactive) | 19.1 µM (inactive) |
